Assay results taken from PubChem BioAssay AID256 (DTP/NCI, 2004).
Where “and” joins values, the source holds several entries; their conditions need not be identical. Equal entries are not always repeated. Inconclusive results and toxic doses are left out. The calls were made as follows: active = survival T/C of 150% or more; inactive = T/C below 125% in these data.

Tested on: CD2F1 mice, L1210 leukemia ip, survival T/C
Test: NCI In Vivo Anticancer Drug Screen. Data for tumor model L1210 Leukemia (intraperitoneal) in CD2F1 (CDF1) mice
Conditions: higher = longer survival
How it was run: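 Antitumor effect is scored in animals hosting a serially transplanted tumor. Values compare compound-dosed animals against vehicle-only controls as a simple quotient.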

[1] = endpoint: mean survival time, dose: 100.0 mg/kg/injection, schedule: Q04DX003 (ip), vehicle: saline with Tween-80
[2] = endpoint: mean survival time, dose: 100.0 mg/kg/injection, schedule: Q04DX003 (ip), vehicle: saline
[3] = endpoint: mean survival time, dose: 200.0 mg/kg/injection, schedule: Q04DX003 (ip), vehicle: saline with Tween-80
[4] = endpoint: mean survival time, dose: 200.0 mg/kg/injection, schedule: Q04DX003 (ip), vehicle: saline
[5] = endpoint: mean survival time, dose: 400.0 mg/kg/injection, schedule: Q04DX003 (ip), vehicle: saline with Tween-80
[6] = endpoint: mean survival time, dose: 400.0 mg/kg/injection, schedule: Q04DX003 (ip), vehicle: saline
[7] = endpoint: mean survival time, dose: 50.0 mg/kg/injection, schedule: Q01DX009 (ip), vehicle: saline
[8] = endpoint: mean survival time, dose: 100.0 mg/kg/injection, schedule: Q01DX009 (ip), vehicle: saline
[9] = endpoint: mean survival time, dose: 100.0 mg/kg/injection, schedule: Q01DX009 (ip), vehicle: saline with Tween-80
[10] = endpoint: mean survival time, dose: 200.0 mg/kg/injection, schedule: Q01DX009 (ip), vehicle: saline with Tween-80
[11] = endpoint: mean survival time, dose: 400.0 mg/kg/injection, schedule: Q01DX009 (ip), vehicle: saline with Tween-80

Measured: T/C

CC1(C)OCC(C2OC3OC(C)(C)OC3C2O)O1 (stereo not given)
inactive: endpoint: mean survival time, dose: 100.0 mg/kg/injection, schedule: Q01DX001 (ip), vehicle: saline 105 % of control | [1] 100 % of control | [2] 97 % of control | endpoint: mean survival time, dose: 200.0 mg/kg/injection, schedule: Q01DX001 (ip), vehicle: saline 103 % of control | [3] 95 % of control | [4] 96 % of control | endpoint: mean survival time, dose: 400.0 mg/kg/injection, schedule: Q01DX001 (ip), vehicle: saline 103 % of control | [5] 103 % of control | [6] 100 % of control

CN(C)CC(Cl)CCl (stereo not given)
inactive: endpoint: mean survival time, dose: 12.5 mg/kg/injection, schedule: Q01DX009 (ip), vehicle: saline 98 % of control | endpoint: mean survival time, dose: 25.0 mg/kg/injection, schedule: Q01DX009 (ip), vehicle: saline 98 % of control | [7] 104 % of control | [8] 105 % of control and 108 % of control | endpoint: mean survival time, dose: 200.0 mg/kg/injection, schedule: Q01DX009 (ip), vehicle: saline 116 % of control and 101 % of control

CC12CCCCC1CCC(Br)C2=O (stereo not given)
inactive: [1] 102 % of control | [3] 100 % of control | [5] 102 % of control

C/C(=N\O)C1(C)CC=CCC1C(=O)O (stereo not given)
inactive: [9] 90 % of control | [1] 100 % of control | [10] 93 % of control | [3] 96 % of control | [11] 94 % of control | [5] 94 % of control

O=C1CCCO1
inactive: endpoint: mean survival time, dose: 12.0 mg/kg/injection, schedule: Q01DX009 (ip), vehicle: saline 99 % of control | [7] 91 % of control | [8] 92 % of control | endpoint: mean survival time, dose: 100.0 mg/kg/injection, schedule: Q04DX002 (ip), vehicle: saline 107 % of control | endpoint: mean survival time, dose: 200.0 mg/kg/injection, schedule: Q04DX002 (ip), vehicle: saline 98 % of control | endpoint: mean survival time, dose: 400.0 mg/kg/injection, schedule: Q04DX002 (ip), vehicle: saline 102 % of control

COc1cc(CC(C)N)ccc1O (stereo not given)
inactive: [1] 105 % of control | [3] 100 % of control | [5] 89 % of control

COC(=O)C1C=C2c3cccc4[nH]cc(c34)CC2N(C)C1 (stereo not given)
inactive: endpoint: mean survival time, dose: 100.0 mg/kg/injection, schedule: Q04DX003 (ip), vehicle: saline sonified 97 % of control | endpoint: mean survival time, dose: 200.0 mg/kg/injection, schedule: Q04DX003 (ip), vehicle: saline sonified 97 % of control | endpoint: mean survival time, dose: 400.0 mg/kg/injection, schedule: Q04DX003 (ip), vehicle: saline sonified 109 % of control

CCN(C(=O)Nc1ccccc1)c1ccccc1
inactive: endpoint: mean survival time, dose: 75.0 mg/kg/injection, schedule: Q04DX003 (ip), vehicle: saline with Tween-80 98 % of control | endpoint: mean survival time, dose: 150.0 mg/kg/injection, schedule: Q04DX003 (ip), vehicle: saline with Tween-80 98 % of control | endpoint: mean survival time, dose: 300.0 mg/kg/injection, schedule: Q04DX003 (ip), vehicle: saline with Tween-80 106 % of control

Cc1ccc([N+](=O)[O-])cc1NC(=O)SCCOC(=O)COc1ccc(Cl)cc1
inactive: [1] 98 % of control | [3] 96 % of control | [5] 98 % of control

Nc1ccccc1Nc1ccccc1
inactive: endpoint: mean survival time, dose: 100.0 mg/kg/injection, schedule: Q01DX001 (ip), vehicle: saline + alcohol 101 % of control | endpoint: mean survival time, dose: 200.0 mg/kg/injection, schedule: Q01DX001 (ip), vehicle: saline + alcohol 97 % of control

c1cc2c3c(cccc3c1)C1C2C2c3cccc4cccc(c34)C12 (stereo not given)
inactive: endpoint: mean survival time, dose: 100.0 mg/kg/injection, schedule: Q01DX001 (ip), vehicle: saline with Tween-80 93 % of control | endpoint: mean survival time, dose: 200.0 mg/kg/injection, schedule: Q01DX001 (ip), vehicle: saline with Tween-80 97 % of control | endpoint: mean survival time, dose: 400.0 mg/kg/injection, schedule: Q01DX001 (ip), vehicle: saline with Tween-80 100 % of control

NC(=O)c1cc(C(N)=O)n(C2OC(CO)C(O)C2O)n1 (stereo not given)
inactive: endpoint: mean survival time, dose: 12.5 mg/kg/injection, schedule: Q01DX005 (ip), vehicle: water 100 % of control | endpoint: mean survival time, dose: 25.0 mg/kg/injection, schedule: Q01DX005 (ip), vehicle: water 100 % of control | endpoint: mean survival time, dose: 50.0 mg/kg/injection, schedule: Q01DX005 (ip), vehicle: water 92 % of control | endpoint: mean survival time, dose: 100.0 mg/kg/injection, schedule: Q01DX005 (ip), vehicle: water 107 % of control | endpoint: mean survival time, dose: 200.0 mg/kg/injection, schedule: Q01DX005 (ip), vehicle: water 96 % of control

CCOC(=O)C(O)(C(=O)OCC)C(C)C
inactive: [9] 94 % of control | [10] 100 % of control | [11] 94 % of control

COCCOCCOCCOCCOCCOCCOCCOCCOCCOCCOC(=O)N(CC[PH+](c1ccccc1)c1ccccc1)CC[PH+](c1ccccc1)c1ccccc1.[Cl][Pt][Cl]
inactive: endpoint: median survival time, dose: 3.13 mg/kg/injection, schedule: Q04DX003 (ip), vehicle: distilled water + Tween-80 101 % of control | endpoint: median survival time, dose: 6.25 mg/kg/injection, schedule: Q04DX003 (ip), vehicle: distilled water + Tween-80 100 % of control | endpoint: median survival time, dose: 12.5 mg/kg/injection, schedule: Q04DX003 (ip), vehicle: distilled water + Tween-80 104 % of control | endpoint: median survival time, dose: 25.0 mg/kg/injection, schedule: Q04DX003 (ip), vehicle: distilled water + Tween-80 96 % of control | endpoint: median survival time, dose: 50.0 mg/kg/injection, schedule: Q04DX003 (ip), vehicle: distilled water + Tween-80 115 % of control | endpoint: median survival time, dose: 100.0 mg/kg/injection, schedule: Q04DX003 (ip), vehicle: distilled water + Tween-80 100 % of control | endpoint: median survival time, dose: 200.0 mg/kg/injection, schedule: Q04DX003 (ip), vehicle: distilled water + Tween-80 98 % of control

Cc1ccc(S(=O)(=O)N2CCC(=O)c3ccccc32)cc1
inactive: [9] 95 % of control | [1] 101 % of control | [10] 97 % of control | [3] 98 % of control | [11] 95 % of control | [5] 103 % of control

Cc1cccc(OCC2=NCCN2)c1C
inactive: endpoint: mean survival time, dose: 6.25 mg/kg/injection, schedule: Q04DX002 (ip), vehicle: saline with Tween-80 102 % of control | endpoint: mean survival time, dose: 12.5 mg/kg/injection, schedule: Q04DX002 (ip), vehicle: saline with Tween-80 109 % of control | endpoint: mean survival time, dose: 25.0 mg/kg/injection, schedule: Q04DX002 (ip), vehicle: saline with Tween-80 97 % of control

CC(=O)Nc1c([N+](=O)[O-])cc2c3c(cccc13)C=C2
inactive: [1] 95 % of control | [3] 92 % of control | [5] 104 % of control

CCOC(=O)C(=O)Nc1onc(C)c1NC(=O)C(=O)OCC
inactive: [1] 100 % of control | [3] 107 % of control | [5] 96 % of control

O=C(O)c1ccc(C(=O)O)s1.[NH-]C1CCCCC1[NH-].[Pt+2]
inactive: endpoint: mean survival time, dose: 2.5 mg/kg/injection, schedule: Q04DX003 (ip), vehicle: dextrose 113 % of control | endpoint: mean survival time, dose: 5.0 mg/kg/injection, schedule: Q04DX003 (ip), vehicle: dextrose 118 % of control | endpoint: mean survival time, dose: 20.0 mg/kg/injection, schedule: Q04DX003 (ip), vehicle: dextrose 113 % of control

Cc1ccc(S(=O)(=O)Oc2ccc(Cl)cc2)cc1
inactive: [9] 101 % of control | [10] 98 % of control | [11] 98 % of control

COc1ccc(C(OCC2OC(n3ccc(NC(=O)c4ccccc4)nc3=O)C(O)C2O)(c2ccccc2)c2ccccc2)cc1 (stereo not given)
inactive: endpoint: median survival time, dose: 12.5 mg/kg/injection, schedule: Q01DX005 (ip), vehicle: saline with Tween-80 100 % of control | endpoint: median survival time, dose: 25.0 mg/kg/injection, schedule: Q01DX005 (ip), vehicle: saline with Tween-80 104 % of control | endpoint: median survival time, dose: 50.0 mg/kg/injection, schedule: Q01DX005 (ip), vehicle: saline with Tween-80 104 % of control | endpoint: median survival time, dose: 100.0 mg/kg/injection, schedule: Q01DX005 (ip), vehicle: saline with Tween-80 98 % of control | endpoint: median survival time, dose: 200.0 mg/kg/injection, schedule: Q01DX005 (ip), vehicle: saline with Tween-80 95 % of control

OC1COCOC1C1OCOCC1O (stereo not given)
inactive: [2] 95 % of control | [4] 95 % of control | [6] 97 % of control
